# Read-outs that look alike come from different tables or passages of the source.
# Assays:
# [1] = test system: H1299 lung cancer cells; test: Survival of H1299 cells exposed to cigarette smoke with/without saliva; format: cell-based, human; conditions: for effect on survival of H1299 cells exposed to CS (in words): CS + 30% saliva
# Procedure: Four control groups, not exposed to tobacco smoke (referred to herein as TS or alternatively, as CS, standing for “cigarette smoke”) were compared to four study groups (similar groups which were also exposed to CS), as detailed hereinafter. The four control groups included the following: a group where the cells were incubated in medium alone and exposed to air (M), a group where the cells were incubated in medium supplemented with whole saliva and exposed to air (M+saliva), a group where the cells where incubated in medium and exposed to CS (M+CS) and a group where the cells were incubated in medium supplemented with saliva and exposed to CS (M+saliva+CS).
# During smoke exposure, the cells were put into a smoking sealed chamber (33.5 cm^3) with CS pressure of 0.3 Bar. Control cells were subjected to the same procedures, but exposed only to fresh air. Cells were exposed to CS for one “puff” every 20 minutes for a 2 hours (120 minutes) period (unless indicated otherwise). Cells exposed to air served as control. Cells were used when it becomes confluent and the medium (with/without saliva) volume was compatibly to the dish in use.
# In order to examine the possible effect of TSPO receptor ligands on the survival rate of cells exposed to both CS and saliva, the benzodiazepine TSPO ligand, diazepam, was added to cells prior to exposing the cells to CS+30% saliva.
# [2] = molecular target: T1, TSPO receptors in SCC-25 cell line (Homo sapiens, UniProt P30536); test: Displacement of [3H]PK11195 from TSPO receptors in SCC-25 cells; format: binding; conditions: for potency in displacing [3H]PK11195, fold lower than PK11195: SCC-25 membrane, relative to PK11195
# T1 construct: endogenous in cells; host or cells: SCC-25
# Procedure: (§1) Cells were scraped from the culture dishes, washed with phosphate-buffered saline (PBS), and centrifuged at 1200 g for 10 minutes. Then the cell pellets were re-suspended in 1 mL of 50 mM phosphate buffer, pH 7.4, and centrifuged at 1200 g for 10 minutes. […] After incubation for 80 minutes at room temperature, samples were filtered under vacuum over Whatman GF/B filters and washed three times with phosphate buffer. Filters were placed in vials containing 4 mL of Opti-Fluor (Packard, Groningen, The Netherlands) and counted for radioactivity in a scintillation counter after 12 hours. The maximal number of binding sites (Bmax) and equilibrium dissociation constants were calculated from the saturation curve of [^3H]
# [3] = molecular target: T2, human salivary TSPO (Homo sapiens, UniProt P30536); test: Competition of TSPO ligands with [3H]PK11195 binding in human saliva; conditions: for binding affinity lower than that of PK11195: relative to PK11195
# T2 construct: from tissue; host or cells: cells pelleted from human saliva samples (volunteers; smokers and non-smokers)
# Procedure: (§2) After 80 minutes of incubation at 4° C., the samples were filtered through Whatman CF/C filters using a vacuum system, washed three times with 4 ml of 5 mM ice-cold phosphate buffer and placed in vials containing 4 ml of Opti-Fluor. Radioactivity was counted after 12 hours with a liquid scintillation analyzer. Specific binding was obtained by subtracting non specific binding from total binding.
# [4] = molecular target: T3, TSPO receptors in SCC-15 cell line (Homo sapiens, UniProt P30536); test: Displacement of [3H]PK11195 from TSPO receptors in SCC-15 cells; format: binding
# T3 construct: endogenous in cells; host or cells: SCC-15
# Procedure: as §1
# [5] = molecular target: T4, TSPO receptors in human tongue cancer cell line SCC-15 (Homo sapiens, UniProt P30536); test: [3H]PK11195 saturation binding (Scatchard) in SCC-15 cells
# T4 construct: endogenous in cells; host or cells: SCC-15
# Procedure: as §1
# [6] = molecular target: T5, TSPO receptor in saliva (Homo sapiens, UniProt P30536); test: [3H]PK11195 saturation binding with Scatchard analysis in human saliva; conditions: n=10
# T5 construct: from tissue; host or cells: cells pelleted from human saliva samples (volunteers; smokers and non-smokers)
# Procedure: as §2
# [7] = molecular target: T6, TSPO receptors in H1299 lung cancer cells (Homo sapiens, UniProt P30536); test: [3H]PK11195 saturation binding (Scatchard) in H1299 cells
# T6 construct: Cells were scraped from the culture dishes, washed with phosphate-buffered saline (PBS), and centrifuged; endogenous in cells; host or cells: H1299
# Procedure: as §1
# [8] = molecular target: T7, TSPO receptors in human tongue cancer cell line SCC-25 (Homo sapiens, UniProt P30536); test: [3H]PK11195 saturation binding (Scatchard) in SCC-25 cells
# T7 construct: Cells were scraped from the culture dishes, washed with phosphate-buffered saline (PBS), and centrifuged; endogenous in cells; host or cells: SCC-25
# Procedure: as §1
# [9] = molecular target: T5, TSPO receptor in saliva; test: [3H]PK11195 binding in saliva from heavy smokers and non-smokers; conditions: for mean TSPO binding: 6 nM ligand
# Procedure: as §2
# The effect of long term CS-exposure on the salivary TSPO, of heavy smokers, was investigated. Saliva samples were collected from heavy smokers (smokers group) and from a control group of non-smoking volunteers (control group), and the total protein expression level as well as TSPO binding capacity was evaluated as follows.
# The mean TSPO binding was calculated and found to be 53% lower in the smokers group, as compared to the control group (694±264; n=9 and 1,480±1,157; n=16, respectively; see, FIG. 7b). This statistically significant reduction (p<0.05) further supports the results obtained for the in-vitro exposure of saliva cells to CS (detailed above), and point to a CS-related reduced TSPO receptor binding capacity.
# [10] = 10^-8 M, medium + 30% saliva, CS 120 minutes
# [11] = 50% inhibition of [3H]PK11195 binding, SCC-25, read-out: IC50
# [12] = inhibition of [3H]PK11195 binding, human saliva, four independent experiments, read-out: Ki
# [13] = 50% inhibition of [3H]PK11195 binding, SCC-15, read-out: IC50
# T5 sequence (P30536 whole entry): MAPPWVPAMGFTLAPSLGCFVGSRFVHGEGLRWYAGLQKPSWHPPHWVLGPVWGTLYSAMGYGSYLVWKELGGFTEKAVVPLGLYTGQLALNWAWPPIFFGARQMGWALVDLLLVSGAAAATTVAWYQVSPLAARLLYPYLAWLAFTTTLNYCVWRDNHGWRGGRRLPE
# T2 sequence (P30536 whole entry): as above
# T1 sequence (P30536 whole entry): as above
# T3 sequence (P30536 whole entry): as above
# T7 sequence (P30536 whole entry): as above
# T4 sequence (P30536 whole entry): as above
# T6 sequence (P30536 whole entry): as above
compound,measurement,setting,value
CN1C(=O)CN=C(c2ccccc2)c2cc(Cl)ccc21 [Diazepam],effect on survival of H1299 cells exposed to CS (in words),[1]; 10^-7 M,significantly increased
same,increase of cell survival,"[1]; 10^-7 M, medium + 30% saliva, CS 120 minutes",16%
same,effect on survival of H1299 cells exposed to CS (in words),[1]; 10^-8 M,significantly increased
same,increase of cell survival,[1]; [10],17.4%
same,IC50,[2],14.2 ± 5.72 µM
same,"potency in displacing [3H]PK11195, fold lower than PK11195",[2],1580 times
same,Ki,[3],4.5 µM
same,binding affinity lower than that of PK11195,[3]; human saliva,three orders of magnitude
same,IC50,[4],14.1 ± 15.2 µM
CCCCCCN(CCCCCC)C(=O)Cc1c(-c2ccc(F)cc2)[nH]c2ccccc12 [FGIN-1-27],IC50,[2]; [11],0.152 ± 0.019 µM
same,"potency in displacing [3H]PK11195, fold lower than PK11195",[2],17 times
same,binding affinity lower than that of PK11195,[3]; human saliva,two orders of magnitude
same,Ki,[3]; [12],0.15 µM
same,IC50,[4]; [13],0.164 µM
"CN1C(=O)CN=C(c2ccc(Cl)cc2)c2cc(Cl)ccc21 [Ro5-4864, 4-chlorodiazepam]",IC50,[2]; [11],0.666 ± 0.036 µM
same,"potency in displacing [3H]PK11195, fold lower than PK11195",[2],74 times
same,binding affinity lower than that of PK11195,[3]; human saliva,two orders of magnitude
same,Ki,[3]; [12],0.5 µM
same,IC50,[4]; [13],2.07 ± 1.55 µM
O=C1CN=C(c2ccccc2Cl)c2cc([N+](=O)[O-])ccc2N1 [Clonazepam],effect on survival of H1299 cells exposed to CS (in words),[1]; 10^-7 M,No significant increase in survival levels
same,effect on survival of H1299 cells exposed to CS (in words),"[1]; 10^-7 M, listed as clonazepam",not significantly altered
same,effect on survival of H1299 cells exposed to CS (in words),[1]; 10^-8 M,did not increase the survival level
same,decrease of cells survival,[1]; [10],10.65%
same,affinity for TSPO (in words),[2]; SCC-25,negligible affinity
same,affinity to TSPO (in words),[3]; human saliva,negligible affinity
CCC(C)N(C)C(=O)c1cc2ccccc2c(-c2ccccc2Cl)n1 (stereo not shown) [[^3H]PK11195],Bmax,[5],6956±5492 fmoles/mg protein
same,non-specific binding as part of total binding,[5],25±3.2%
same,Bmax (maximal binding capacity),[6],"6,471±1,584 fmol/mg protein"
same,maximum amount of specifically bound ligand (Bmax),[7],3274±787 pmol/mg of protein
same,Bmax (maximal binding capacity),[8],3133±643 fmoles/mg protein
same,non-specific binding as part of total binding,[8],a third
same,mean TSPO binding,"[9]; control group (non-smokers), n=16","1,480±1,157"
same,mean TSPO binding,"[9]; smokers group, n=9",694±264
same,mean TSPO binding lower in smokers than control group,[9]; smokers vs control group,53%
